Series [1] has as its target T1, human DGAT1 (Homo sapiens, UniProt O75907).
T1 construct: made in house; host or cells: insect cells (sf9, sf21 or High Five) infected with baculovirus; total cell membranes
T1 sequence (O75907 1-488): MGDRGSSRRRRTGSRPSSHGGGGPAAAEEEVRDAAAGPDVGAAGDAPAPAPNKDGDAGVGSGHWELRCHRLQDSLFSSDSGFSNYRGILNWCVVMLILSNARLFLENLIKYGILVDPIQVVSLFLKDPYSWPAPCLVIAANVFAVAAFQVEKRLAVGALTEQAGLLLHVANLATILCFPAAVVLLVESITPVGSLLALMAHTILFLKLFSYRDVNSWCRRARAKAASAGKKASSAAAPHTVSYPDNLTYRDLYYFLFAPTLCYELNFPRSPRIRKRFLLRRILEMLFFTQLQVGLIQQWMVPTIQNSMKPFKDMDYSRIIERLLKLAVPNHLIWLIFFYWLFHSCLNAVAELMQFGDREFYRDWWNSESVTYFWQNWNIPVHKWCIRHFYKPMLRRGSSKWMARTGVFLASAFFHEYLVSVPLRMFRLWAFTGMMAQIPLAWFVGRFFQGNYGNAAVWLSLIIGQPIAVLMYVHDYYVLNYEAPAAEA
The experiment in a line: DGAT Scintillation Proximity Assay (SPA) with membranes of insect cells expressing human flagtag DGAT1. In kind it is biochemical. The following applies: read-out: hDGAT1 IC50. An outline of the steps:
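Membranes (0.2 μg/well) from insect cells expressing human flag-tagged DGAT1 incubated with 10 μM compound and 200 μM dioleoyl glycerol substrate; mercuric chloride as inhibition control. Reaction stopped with WGA SPA beads in mercuric chloride, overnight bead coupling, then scintillation proximity signal read.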
Background: In a scintillation proximity assay essentially only radioactivity close to the scintillant gives light.

IC50 and melting point data for 35 molecules are collected here from patent publication US7244727B2, “Fused bicyclic nitrogen-containing heterocycles” (Japan Tobacco Inc., priority 2002, dated 2007).

In general, IC50 refers to the concentration that inhibits the measured activity by half. The term melting point denotes the temperature of the solid-liquid transition.

A value given as a limit tells only on which side of the number the result lay.

Turning to `CC(NC(=O)[C@H]1CC[C@H](c2ccc(C3=Nc4c(N)ncnc4OC3(C)C)cc2)CC1)C(=O)O` (stereo partly shown) [Example 2-211], the melting point was greater than 250 °C. Further, in series [1], the IC50 was in the range of 10 to 100 nM.

The molecule `CC(C)(NC(=O)[C@H]1CC[C@H](c2ccc(C3=Nc4c(N)ncnc4OC3(C)C)cc2)CC1)C(=O)O` [Example 2-212] showed a melting point greater than 250 °C. Further, the IC50 in series [1] was less than 10 nM.

In turn, `CC1(C)Oc2ncnc(N)c2N=C1c1ccc([C@H]2CC[C@H](C(=O)NC(CO)C(=O)O)CC2)cc1` (stereo partly shown) [Example 2-213] displayed a melting point greater than 250 °C. Further, in series [1], the IC50 fell in the range of 10 to 100 nM.

Molecule `CN(CC(=O)O)C(=O)[C@H]1CC[C@H](c2ccc(C3=Nc4c(N)ncnc4OC3(C)C)cc2)CC1` [Example 2-214] yielded a melting point greater than 250 °C. The IC50 in series [1] is less than 10 nM.

`CC1(C)Oc2ncnc(N)c2N=C1c1ccc([C@H]2CC[C@H](CN3C(=O)c4ccccc4C3=O)CC2)cc1` [Example 2-217]: the melting point lay in the range of 225 to 227 °C. The IC50 in series [1] is 10 to 100 nM.

`CC1(C)Oc2ncnc(N)c2N=C1c1ccc([C@H]2CC[C@H](NS(N)(=O)=O)CC2)cc1` [Example 2-218] yielded a melting point of 212 °C. The IC50 in series [1] lay within 10 to 100 nM.

`CN(CC(=O)O)C(=O)[C@H]1CC[C@H](c2ccc(C3=Nc4c(N)ncnc4OC3(C)C)cc2)CC1` [Example 2-219] yielded a melting point of 243 to 248 °C. In addition, the IC50 in series [1] lay within 10 to 100 nM.

The molecule `CC1(C)Oc2ncnc(N)c2NC1c1ccc([C@H]2CC[C@H](CS(N)(=O)=O)CC2)cc1` (stereo partly shown) [Example 2-221] gave a melting point greater than 250 °C. Further, the IC50 in series [1] is greater than 100 nM.

Regarding `CC1(C)Oc2ncnc(N)c2NC1c1ccc([C@H]2CC[C@H](NS(N)(=O)=O)CC2)cc1` (stereo partly shown) [Example 2-222], the melting point is greater than 250 °C. The IC50 in series [1] is greater than 100 nM.

In turn, `CC1(C)Oc2ncnc(N)c2N=C1c1ccc([C@H]2CC[C@H](CN3CCCCC3)CC2)cc1` [Example 2-224] yielded a melting point of 169 to 171 °C. The IC50 in series [1] is greater than 100 nM.

Take `CC1(C)Oc2ncnc(N)c2N=C1c1ccc([C@H]2CC[C@H](CN3CCC(CCO)CC3)CC2)cc1` [Example 2-227]: the melting point is 198 to 200 °C. Further, the IC50 in series [1] is greater than 100 nM.

Consider `CC1(C)Oc2ncnc(N)c2N=C1c1ccc([C@H]2CC[C@H](CN3CCC(Cc4ccccc4)CC3)CC2)cc1` [Example 2-228], for which the melting point is 119 to 120 °C. Further, the IC50 in series [1] is greater than 100 nM.

`CC1(C)Oc2ncnc(N)c2N=C1c1ccc([C@H]2CC[C@H](CN3CCCC3)CC2)cc1` [Example 2-229] registered a melting point of 160 to 162 °C. Further, the IC50 in series [1] was greater than 100 nM.

Take `CC(C)(C)OC(=O)N1CCN(C[C@H]2CC[C@H](c3ccc(C4=Nc5c(N)ncnc5OC4(C)C)cc3)CC2)CC1` [Example 2-232]: the melting point was 171 to 172 °C. The IC50 in series [1] was in the range of 10 to 100 nM.

The molecule `CC(O)[C@H]1CC[C@H](c2ccc(C3=Nc4c(N)ncnc4OC3(C)C)cc2)CC1` (stereo partly shown) [Example 2-233] showed a melting point of 224 to 229 °C. In series [1], the IC50 is greater than 100 nM.

Consider `CC1(C)Oc2ncnc(N)c2N=C1c1ccc([C@H]2CC[C@H](NC(=O)CO)CC2)cc1` [Example 2-234], for which the melting point was in the range of 226 to 230 °C. Further, in series [1], the IC50 was 10 to 100 nM.

In the case of `CC1(C)Oc2ncnc(N)c2N=C1c1ccc([C@H]2CC[C@H](C(=O)N3CCCC3)CC2)cc1` [Example 2-235], the melting point lay in the range of 201 to 202 °C. Besides, the IC50 in series [1] lay within 10 to 100 nM.

In turn, `CC1(C)Oc2ncnc(N)c2N=C1c1ccc([C@H]2CC[C@H](C(=O)N3CCCCC3)CC2)cc1` [Example 2-236] showed a melting point of 220 to 224 °C. For the same molecule, in series [1], the IC50 is 10 to 100 nM.

In the case of `CC1(C)Oc2ncnc(N)c2N=C1c1ccc([C@H]2CC[C@H](C(=O)N3CCC(O)CC3)CC2)cc1` [Example 2-237], the melting point is 250 to 252 °C. The IC50 in series [1] is 10 to 100 nM.

`CN1CCN(C(=O)[C@H]2CC[C@H](c3ccc(C4=Nc5c(N)ncnc5OC4(C)C)cc3)CC2)CC1` [Example 2-238] came in with a melting point of 190 to 191 °C. Also, in series [1], the IC50 was greater than 100 nM.

Molecule `CC1(C)Oc2ncnc(N)c2N=C1c1ccc([C@H]2CC[C@H](C(=O)N3CCOCC3)CC2)cc1` [Example 2-239] returned a melting point of 233 to 235 °C. Besides, in series [1], the IC50 is greater than 100 nM.

`CC1(C)Oc2ncnc(N)c2N=C1c1ccc([C@H]2CC[C@H](CN3CCN(S(C)(=O)=O)CC3)CC2)cc1` [Example 2-240] displayed a melting point of 233 to 235 °C. The IC50 in series [1] lay within 10 to 100 nM.

`CC(C)C(=O)N1CCN(C[C@H]2CC[C@H](c3ccc(C4=Nc5c(N)ncnc5OC4(C)C)cc3)CC2)CC1` [Example 2-241]: the melting point lay within 120 to 126 °C. The IC50 in series [1] lay in the range of 10 to 100 nM.

The molecule `CN(C[C@H]1CC[C@H](c2ccc(C3=Nc4c(N)ncnc4OC3(C)C)cc2)CC1)C(=O)CO` [Example 2-243] displayed a melting point of 208 to 210 °C. Further, in series [1], the IC50 lay within 10 to 100 nM.

For `CC1(C)Oc2ncnc(N)c2N=C1c1ccc([C@H]2CC[C@H](CN3CCNCC3)CC2)cc1` [Example 2-244], the melting point lay within 208 to 209 °C. Further, in series [1], the IC50 lay in the range of 10 to 100 nM.

Regarding `CCCNC(=O)N1CCN(C[C@H]2CC[C@H](c3ccc(C4=Nc5c(N)ncnc5OC4(C)C)cc3)CC2)CC1` [Example 2-245], the melting point is 180 to 182 °C. Moreover, in series [1], the IC50 was in the range of 10 to 100 nM.

As to `CC1(C)Oc2ncnc(N)c2N=C1c1ccc([C@H]2CC[C@H](CN3CCN(C(N)=O)CC3)CC2)cc1` [Example 2-246], the melting point fell in the range of 158 to 160 °C. Besides, in series [1], the IC50 fell in the range of 10 to 100 nM.

As to `CC1(C)Oc2ncnc(N)c2N=C1c1ccc([C@H]2CC[C@H](CN3CCN(C(=O)CO)CC3)CC2)cc1` [Example 2-247], the melting point was in the range of 205 to 206 °C. Also, the IC50 in series [1] is 10 to 100 nM.

Molecule `CC(C)(O)C(=O)N1CCN(C[C@H]2CC[C@H](c3ccc(C4=Nc5c(N)ncnc5OC4(C)C)cc3)CC2)CC1` [Example 2-248] had a melting point of 207 to 208 °C. In series [1], the IC50 was in the range of 10 to 100 nM.

The molecule `CC(=O)N1CCN(C[C@H]2CC[C@H](c3ccc(C4=Nc5c(N)ncnc5OC4(C)C)cc3)CC2)CC1` [Example 2-249] returned a melting point of 202 to 203 °C. Further, in series [1], the IC50 is 10 to 100 nM.

In turn, `CC1(C)Oc2ncnc(N)c2N=C1c1ccc([C@H]2CC[C@H](C(=O)N3C[C@@H](O)[C@@H](O)C3)CC2)cc1` [Example 2-250] came in with a melting point of 220 to 240 °C. Besides, the IC50 in series [1] fell in the range of 10 to 100 nM.

`CC1(C)Oc2ncnc(N)c2N=C1c1ccc([C@H]2CC[C@H](CN3CCC(C(N)=O)CC3)CC2)cc1` [Example 2-251] showed a melting point of 159 to 164 °C. The IC50 in series [1] lay within 10 to 100 nM.

In turn, `CCNS(=O)(=O)C[C@H]1CC[C@H](c2ccc(C3=Nc4c(N)ncnc4OC3(C)C)cc2)CC1` [Example 2-252] came in with a melting point of 209 to 211 °C. Besides, the IC50 in series [1] was 10 to 100 nM.

As to `CC1(C)Oc2ncnc(N)c2N=C1c1ccc([C@H]2CC[C@H](CSCC(=O)O)CC2)cc1` [Example 2-253], the melting point is 248 °C (dec.). Moreover, in series [1], the IC50 was less than 10 nM.

`CC1(C)Oc2ncnc(N)c2N=C1c1ccc([C@H]2CC[C@H](C(=O)CO)CC2)cc1` [Example 2-254] yielded a melting point of 213 to 214 °C. Also, the IC50 in series [1] fell in the range of 10 to 100 nM.
